This is an account of results in patent publication US8481732B2 (Incyte Corporation, priority 2009, dated 2013).

The term IC50 denotes the concentration needed to halve the response being measured.

The target of this assay is T1, histamine H4 receptor (Homo sapiens, UniProt Q9H3N8).
T1 construct: expressed in transfected cells; host or cells: HEK293SFM cells (membrane preparation)
T1 sequence (Q9H3N8 whole entry): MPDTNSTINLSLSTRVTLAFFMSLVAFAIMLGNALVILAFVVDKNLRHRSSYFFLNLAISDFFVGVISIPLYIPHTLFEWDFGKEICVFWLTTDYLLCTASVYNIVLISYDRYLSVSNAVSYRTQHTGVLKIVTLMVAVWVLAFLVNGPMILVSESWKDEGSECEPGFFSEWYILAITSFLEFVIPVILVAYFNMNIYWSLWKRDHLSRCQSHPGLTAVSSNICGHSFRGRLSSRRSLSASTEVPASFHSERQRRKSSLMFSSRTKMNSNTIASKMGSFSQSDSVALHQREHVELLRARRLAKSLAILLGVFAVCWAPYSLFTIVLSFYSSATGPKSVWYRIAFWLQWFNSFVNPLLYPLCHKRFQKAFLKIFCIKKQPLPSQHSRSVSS
As to the kind of experiment: H4 Membrane Binding Assay (3H-Histamine displacement). The note with it: membranes of recombinant HEK293SFM cells, 10 nM 3H-Histamine, 1.5 hr at room temperature. On the procedure:
Recombinant HEK293SFM cells expressing human H1, H2, H3, H4 or mouse H4 were harvested (Packard Filtermate Harvester) in ice-cold Tris-HCl, (50 mM, pH 7.5, Sigma) with protease inhibitors (Roche) and homogenized with a Polytron homogenizer. The homogenate was centrifuged for 5 minutes at 1000 g to remove nuclei and unbroken cells. The supernatant was centrifuged at 50000 g for 30 minutes, and the resulting pellet was re-suspended in ice-cold Tris-HCl (50 mM, pH 7.5). […] Nonspecific binding was determined by inclusion of 1000× unlabeled ligands. The bound radioactivity was separated by filtration through polyethyleneimine-treated GF/B filters (Perkin Elmer). The filters were washed eight times with ice-cold Tris-HCl (50 mM, pH 7.5), and radioactivity retained on the filters was measured by liquid scintillation counting. The binding data were evaluated with Prism.
As for `COc1cccc(COc2cccc3c2CCN(C(=O)c2ccc4c(N5CCN(C)CC5)nc(N)nc4c2)C3)c1` [Example 208, (2-Amino-4-(4-methylpiperazin-1-yl)quinazolin-7-yl)(5-(3-methoxybenzyloxy)-3,4-dihydroisoquinolin-2(1H)-yl)methanone], the IC50 stood at 24 nM.

On to `COC(=O)N1CCC(CC(=O)N2CCc3ccc(-c4cc(N5CCN(C)CC5)nc(N)n4)cc3C2)C1` (centres unmarked) [Example 118, Methyl 3-{2-[7-[2-amino-6-(4-methylpiperazin-1-yl)pyrimidin-4-yl]-3,4-dihydroisoquinolin-2(1H)-yl]-2-oxoethyl}pyrrolidine-1-carboxylate], for which the IC50 was 178 nM. Then `CN1CCN(c2cc(-c3ccc4c(c3)CN(C(=O)CC(C)(C#N)C3CC3)CC4)nc(N)n2)CC1` (centres unmarked) [Example 123, 4-[7-[2-Amino-6-(4-methylpiperazin-1-yl)pyrimidin-4-yl]-3,4-dihydroisoquinolin-2(1H)-yl]-2-cyclopropyl-2-methyl-4-oxobutanenitrile], with 105 nM; and `CN1CCN(c2nc(N)nc3cc(C(=O)NCC4CC4)ccc23)CC1` [Example 25, 2-Amino-N-(cyclopropylmethyl)-4-(4-methylpiperazin-1-yl)quinazoline-7-carboxamide], with 579 nM; and `CN1CCN(c2cc(-c3ccc4c(c3)CN(C(=O)NC3CCC(C(=O)N(C)C)CC3)CC4)nc(N)n2)CC1` (centres unmarked) [Example 54, 7-[2-Amino-6-(4-methylpiperazin-1-yl)pyrimidin-4-yl]-N-{4-[(dimethylamino)carbonyl]cyclohexyl}-3,4-dihydroisoquinoline-2(1H)-carboxamide], with 439 nM. As for `COC(=O)NC(CC(=O)N1CCc2ccc(-c3cc(N4CCN(C)CC4)nc(N)n3)cc2C1)C1CCCCC1` (centres unmarked) [Example 114, Methyl{3-[7-[2-amino-6-(4-methylpiperazin-1-yl)pyrimidin-4-yl]-3,4-dihydroisoquinolin-2(1H)-yl]-1-cyclohexyl-3-oxopropyl}carbamate], the IC50 came to 109 nM. With `CN1CCN(c2cc(-c3ccc4c(c3)CN(C(=O)Cc3cncc(C#N)c3)CC4)nc(N)n2)CC1` [Example 125, 5-{2-[7-[2-Amino-6-(4-methylpiperazin-1-yl)pyrimidin-4-yl]-3,4-dihydroisoquinolin-2(1H)-yl]-2-oxoethyl}nicotinonitrile] the figure was 92 nM; with `CC(NC(=O)c1ccc2c(N3CCN(C)CC3)nc(N)nc2c1)c1cccc(OCc2cccc(C#N)c2)c1` (centres unmarked) [Example 201, 2-Amino-N-(1-{3-[(3-cyanobenzyl)oxy]phenyl}ethyl)-4-(4-methylpiperazin-1-yl)quinazoline-7-carboxamide], 14 nM. On to `CN1CCN(c2nc(N)nc3cc(C(=O)N4CCc5c(cccc5OCc5cccc(C#N)c5)C4)ccc23)CC1` [Example 207, 3((2-(2-Amino-4-(4-methylpiperazin-1-yl)quinazoline-7-carbonyl)-1,2,3,4-tetrahydroisoquinolin-5-yloxy)methyl)benzonitrile], for which the IC50 stood at 36 nM. Regarding `CN1CCN(c2cc(-c3ccc4c(c3)CN(C(=O)CC3CC3)CC4)nc(N)n2)CC1` [Example 106, 4-[2-(Cyclopropylacetyl)-1,2,3,4-tetrahydroisoquinolin-7-yl]-6-(4-methylpiperazin-1-yl)pyrimidin-2-amine], the IC50 came to 69 nM. With `CNC(=O)c1ccc(N2CCc3ccc(-c4cc(N5CCN(C)CC5)nc(N)n4)cc3C2)cn1` [Example 17, 5-{7-[2-Amino-6-(4-methylpiperazin-1-yl)pyrimidin-4-yl]-3,4-dihydroisoquinolin-2(1H)-yl}-N-methylpyridine-2-carboxamide] the figure was 199 nM. Then `CN1CCN(c2cc(-c3ccc4c(c3)CN(C(=O)CC3(C#N)CCC3)CC4)nc(N)n2)CC1` [Example 120, 1-{2-[7-[2-Amino-6-(4-methylpiperazin-1-yl)pyrimidin-4-yl]-3,4-dihydroisoquinolin-2(1)-yl]-2-oxoethyl}cyclobutanecarbonitrile], with 34 nM; and `CN1CCN(c2cc(-c3ccc4c(c3)CN(c3ccc(-c5ccc(C#N)cc5)cn3)CC4)nc(N)n2)CC1` [Example 18, 4-{6-[7-[2-Amino-6-(4-methylpiperazin-1-yl)pyrimidin-4-yl]-3,4-dihydroisoquinolin-2(1H)-yl]pyridin-3-yl}benzonitrile], with 34 nM; and `CN1CCN(c2cc(-c3cc4c(cc3F)CCN(C(=O)NC3CCCCC3)C4)nc(N)n2)CC1` [Example 76, 7-[2-Amino-6-(4-methylpiperazin-1-yl)pyrimidin-4-yl]-N-cyclohexyl-6-fluoro-3,4-dihydroisoquinoline-2(1H)-carboxamide], with 77 nM. Then `COc1ccc(Oc2cccc(CC(NC(=O)c3ccc4c(N5CCN(C)CC5)nc(N)nc4c3)C(=O)N(C)C)c2)cc1` (centres unmarked) [Example 166, 2-Amino-N-{2-(dimethylamino)-1-[3-(4-methoxyphenoxy)benzyl]-2-oxoethyl}-4-(4-methylpiperazin-1-yl)quinazoline-7-carboxamide], with 31 nM; and `CN1CCN(c2nc(N)nc3cc(C(=O)NCc4cccc(Oc5cnc6ccccc6n5)c4)ccc23)CC1` [Example 188, 2-Amino-4-(4-methylpiperazin-1-yl)-N-[3-(quinoxalin-2-yloxy)benzyl]quinazoline-7-carboxamide], with 13 nM; and `CN1CCN(c2nc(N)nc3cc(C(=O)NCc4cccc(Oc5cc(C#N)ccn5)c4)ccc23)CC1` [Example 183, 2-Amino-N-{3-[(4-cyanopyridin-2-yl)oxy]benzyl}-4-(4-methylpiperazin-1-yl)quinazoline-7-carboxamide], with 65 nM. For the compound `CN1CCN(c2cc(-c3ccc4c(c3)CN(C(=O)N3CCC(F)(F)CC3)CC4)nc(N)n2)CC1` [Example 104, 4-{2-[(4,4-Difluoropiperidin-1-yl)carbonyl]-1,2,3,4-tetrahydroisoquinolin-7-yl}-6-(4-methylpiperazin-1-yl)pyrimidin-2-amine], the IC50 came to 259 nM. In the case of `CCC(C)CC(=O)N1CCc2ccc(-c3cc(N4CCN(C)CC4)nc(N)n3)cc2C1` (centres unmarked) [Example 111, 4-[2-(3-Methylpentanoyl)-1,2,3,4-tetrahydroisoquinolin-7-yl]-6-(4-methylpiperazin-1-yl)pyrimidin-2-amine], the IC50 stood at 9.5 nM. Then `CN1CCN(c2cc(-c3ccc4c(c3)CN(C(=O)NC3CCc5ccccc53)CC4)nc(N)n2)CC1` (centres unmarked) [Example 82, 7-[2-Amino-6-(4-methylpiperazin-1-yl)pyrimidin-4-yl]-N-(2,3-dihydro-1H-inden-1-yl)-3,4-dihydroisoquinoline-2(1H)-carboxamide], with 67 nM; and `COc1ccc(C#N)c(Oc2cccc(CC(NC(=O)c3ccc4c(N5CCN(C)CC5)nc(N)nc4c3)C(=O)N(C)C)c2)c1` (centres unmarked) [Example 170, 2-Amino-N-[1-[3-(2-cyano-5-methoxyphenoxy)benzyl]-2-(dimethylamino)-2-oxoethyl]-4-(4-methylpiperazin-1-yl)quinazoline-7-carboxamide], with 23 nM.

For the compound `CN1CCN(c2nc(N)nc3cc(C(=O)N[C@@H](Cc4ccc(-c5ccccn5)cc4)C(=O)N(C)C)ccc23)CC1` [Example 160, 2-Amino-N-[(1S)-2-(dimethylamino)-2-oxo-1-(4-pyridin-2-ylbenzyl)ethyl]-4-(4-methylpiperazin-1-yl)quinazoline-7-carboxamide], the IC50 was found to be 52 nM. On to `CN1CCN(c2nc(N)nc3cc(C(=O)NC(Cc4ccc5c(c4)OC(F)(F)O5)C(=O)N(C)C)ccc23)CC1` (single isomer, unassigned) [Example 145B, 2-Amino-N-(3-(2,2-difluorobenzo[d][1,3]dioxol-5-yl)-1-(dimethylamino)-1-oxopropan-2-yl)-4-(4-methylpiperazin-1-yl)quinazoline-7-carboxamide], for which the IC50 came to 26 nM. Turning to `CN1CCN(c2cc(-c3ccc4c(c3)CN(C(=O)NCc3ccccc3)CC4)nc(N)n2)CC1` [Example 80, 7-[2-Amino-6-(4-methylpiperazin-1-yl)pyrimidin-4-yl]-N-benzyl-3,4-dihydroisoquinoline-2(1H)-carboxamide], the IC50 is 232 nM.

With `CC(NC(=O)N1CCc2ccc(-c3cc(N4CCN(C)CC4)nc(N)n3)cc2C1)c1ccccc1` (centres unmarked) [Example 51, 7-[2-Amino-6-(4-methylpiperazin-1-yl)pyrimidin-4-yl]-N-(1-phenylethyl)-3,4-dihydroisoquinoline-2(1H)-carboxamide], the IC50 turned out to be 63 nM.

For the compound `COC(=O)c1ccccc1Oc1cccc(CNC(=O)c2ccc3c(N4CCN(C)CC4)nc(N)nc3c2)c1` [Example 191, Methyl 2-{3-[({[2-amino-4-(4-methylpiperazin-1-yl)quinazolin-7-yl]carbonyl}amino)methyl]phenoxy}benzoate], the IC50 was 20 nM. As to `CO[C@H]1CCCC[C@H]1NC(=O)N1CCc2ccc(-c3cc(N4CCN(C)CC4)nc(N)n3)cc2C1` (relative stereo) [Example 55, 7-[2-Amino-6-(4-methylpiperazin-1-yl)pyrimidin-4-yl]-N-(cis-2-methoxycyclohexyl)-3,4-dihydroisoquinoline-2(1H)-carboxamide], the half-maximal inhibitory concentration (IC50) turned out to be 120 nM. Take `CNC(=O)c1ccc2c(N3CCN(C)CC3)nc(N)nc2c1` [Example 26, 2-Amino-N-methyl-4-(4-methylpiperazin-1-yl)quinazoline-7-carboxamide]: the half-inhibitory concentration (IC50) was determined as 495 nM. Regarding `COC(=O)NC(C)CC(=O)N1CCc2ccc(-c3cc(N4CCN(C)CC4)nc(N)n3)cc2C1` (centres unmarked) [Example 113, Methyl{3-[7-[2-amino-6-(4-methylpiperazin-1-yl)pyrimidin-4-yl]-3,4-dihydroisoquinolin-2(1H)-yl]-1-methyl-3-oxopropyl}carbamate], the IC50 is 147 nM.
